Results on 58 compounds are retold here after the NIST ThermoML archive (doi:10.1021/je700297c).

Structures are written as SMILES. Numbers after ± are expanded uncertainties.

The nature of this data set: activity coefficient (dimensionless); of the first substance listed, at infinite dilution; xn = mol fraction of the nth substance listed. The conditions noted are these: Liquid, Chromatography, x1 = 0.

Turning to `CCO` [ethanol] + CCCC[n+]1ccn(C)c1.O=S(=O)([N-]S(=O)(=O)C(F)(F)F)C(F)(F)F, for the setting “323 K”, the activity coefficient is 1.2 ± 0.1.
As to `CC1CCCCC1` [methylcyclohexane] + C[n+]1ccn(CCCC#N)c1.N#CN=C=[N-], the activity coefficient (303 K) is 118 ± 8.1 and the activity coefficient (323 K) amounted to 84.9 ± 5.8.
In the case of `CCO` [ethanol] + CCCCCCCCCCCCCCCC(=O)[O-].CCCCn1cc[n+](C)c1, the activity coefficient (333 K) is 0.4 ± 0.1.
Same read-out and setting: to `Cc1ccccc1` [toluene] + CCCCCCCCCCCCCCCC(=O)[O-].CCCCn1cc[n+](C)c1 belongs 0.8 ± 0.1.
As to `C1CCCCC1` [cyclohexane] + CCCCCCCCCCCCCCCC(=O)[O-].CCCCn1cc[n+](C)c1, the activity coefficient (333 K) worked out at 0.9 ± 0.1.
As for `CCCCCC` [hexane] + C[n+]1ccn(CCCC#N)c1.N#CN=C=[N-], the activity coefficient was found to be 213 ± 15 (303 K) and 145 ± 9.9 (323 K).
The matching figures for `C1CCCCC1` [cyclohexane] + C[n+]1ccn(CCCC#N)c1.O=S(=O)([N-]S(=O)(=O)C(F)(F)F)C(F)(F)F: 55.4 ± 3.8 and 45.9 ± 3.1.
With `CCO` [ethanol] + CCCCCCCC[n+]1ccn(C)c1.F[B-](F)(F)F, the activity coefficient worked out at 0.5 ± 0.1 (298 K) and 0.4 ± 0.1 (323 K).
Take `CO` [methanol] + CCCC[n+]1ccn(C)c1.O=S(=O)([N-]S(=O)(=O)C(F)(F)F)C(F)(F)F: the activity coefficient (323 K) worked out at 0.8 ± 0.1.
For `CCCCCCCC` [octane] + CCCC[n+]1ccn(C)c1.O=S(=O)([N-]S(=O)(=O)C(F)(F)F)C(F)(F)F, the activity coefficient (323 K) turned out to be 23.4 ± 1.6.
For `c1ccccc1` [benzene] + CCCCCCCCCCCCCCCCCC(=O)[O-].CCCCn1cc[n+](C)c1, the activity coefficient reads like this: (323 K) 0.7 ± 0.1; (333 K) 0.7 ± 0.1.
With `c1ccccc1` [benzene] + CCCCCCCCCCCCCCCC(=O)[O-].CCCCn1cc[n+](C)c1, for the setting “333 K”, the activity coefficient turned out to be 0.7 ± 0.1.
For `C=CCCCCCC` [oct-1-ene] + CCCCCCCCCCCCCCCCCC(=O)[O-].CCCCn1cc[n+](C)c1, the activity coefficient is, setting by setting: (323 K) 1.7 ± 0.1; (333 K) 1.4 ± 0.1.
As for `CO` [methanol] + C[n+]1ccn(CCCC#N)c1.N#CN=C=[N-], the activity coefficient (303 K) is 0.3 ± 0.1 and the activity coefficient (323 K) is 0.3 ± 0.1.
For `c1ccsc1` [thiophene] + CCCCCCCCCCCCCCCCCC(=O)[O-].CCCCn1cc[n+](C)c1, the activity coefficient (323 K) was 0.8 ± 0.1 and the activity coefficient (333 K) was 0.8 ± 0.1.
Turning to `c1ccccc1` [benzene] + CCCCCCCC[n+]1ccn(C)c1.F[B-](F)(F)F, the activity coefficient is 0.7 ± 0.1 (298 K) and 0.6 ± 0.1 (323 K).
As to `CCOC(C)=O` [ethyl acetate] + CCCC[n+]1ccn(C)c1.O=S(=O)([N-]S(=O)(=O)C(F)(F)F)C(F)(F)F, the activity coefficient (323 K) is 0.7 ± 0.1.
On the same count and under the same terms, to `C=CCCCCCC` [oct-1-ene] + CCCC[n+]1ccn(C)c1.O=S(=O)([N-]S(=O)(=O)C(F)(F)F)C(F)(F)F belongs 12.3 ± 0.8.
With `C1CCCCC1` [cyclohexane] + CCCCn1cc[n+](C)c1.F[B-](F)(F)F, the activity coefficient is 30.7 ± 2.1 (298 K) and 24.7 ± 1.7 (323 K).
As to `CCCCCCC` [heptane] + CCCCCCCCCCCCCCCCCC(=O)[O-].CCCCn1cc[n+](C)c1, the activity coefficient by setting is: (323 K) 1.8 ± 0.1; (333 K) 1.5 ± 0.1.
`Cc1ccccc1` [toluene] + CCCCCCCC[n+]1ccn(C)c1.F[B-](F)(F)F: the activity coefficient is, setting by setting: (298 K) 1 ± 0.1; (323 K) 0.9 ± 0.1.
For `C=CCCCC` [hex-1-ene] + C[n+]1ccn(CCCC#N)c1.O=S(=O)([N-]S(=O)(=O)C(F)(F)F)C(F)(F)F, the activity coefficient by setting is: (303 K) 54.2 ± 3.7; (323 K) 47.1 ± 3.2.
On the same counts, the results for `c1ccsc1` [thiophene] + C[n+]1ccn(CCCC#N)c1.N#CN=C=[N-] are 1.7 ± 0.1 and 1.6 ± 0.1.
On to `CCOC(C)=O` [ethyl acetate] + CCCCCCCC[n+]1ccn(C)c1.F[B-](F)(F)F, for which the activity coefficient was found to be 0.9 ± 0.1 (298 K) and 0.8 ± 0.1 (323 K).
For `c1ccccc1` [benzene] + C[n+]1ccn(CCCC#N)c1.O=S(=O)([N-]S(=O)(=O)C(F)(F)F)C(F)(F)F, the activity coefficient is, setting by setting: (303 K) 1.8 ± 0.1; (323 K) 1.7 ± 0.1.
Regarding `c1ccsc1` [thiophene] + CCCCCCCCCCCCCCCC(=O)[O-].CCCCn1cc[n+](C)c1, the activity coefficient (333 K) came out at 0.9 ± 0.1.
Consider `CO` [methanol] + CCCCCCCC[n+]1ccn(C)c1.F[B-](F)(F)F, for which the activity coefficient (298 K) is 0.3 ± 0.1 and the activity coefficient (323 K) came out at 0.3 ± 0.1.
Regarding `CC1CCCCC1` [methylcyclohexane] + CCCCn1cc[n+](C)c1.F[B-](F)(F)F, the activity coefficient by setting is: (298 K) 43.7 ± 3; (323 K) 35.5 ± 2.4.
The matching figures for `CCO` [ethanol] + CCCCn1cc[n+](C)c1.F[B-](F)(F)F: 1.1 ± 0.1 and 1 ± 0.1.
For the compound `CCCCCCC` [heptane] + CCCC[n+]1ccn(C)c1.O=S(=O)([N-]S(=O)(=O)C(F)(F)F)C(F)(F)F, the activity coefficient (323 K) amounted to 15.5 ± 1.1.
For the compound `CCCCCCCC` [octane] + C[n+]1ccn(CCCC#N)c1.N#CN=C=[N-], the activity coefficient is, setting by setting: (303 K) 264 ± 18; (323 K) 204 ± 14.
On to `CCCCCC` [hexane] + CCCC[n+]1ccn(C)c1.O=S(=O)([N-]S(=O)(=O)C(F)(F)F)C(F)(F)F, for which, where the note is “323 K”, the activity coefficient came out at 12.8 ± 0.9.
Take `O` [water] + C[n+]1ccn(CCCC#N)c1.O=S(=O)([N-]S(=O)(=O)C(F)(F)F)C(F)(F)F: under “323 K”, the activity coefficient worked out at 1.8 ± 0.1.
For the compound `CCCCCC` [hexane] + CCCCCCCC[n+]1ccn(C)c1.F[B-](F)(F)F, the activity coefficient by setting is: (298 K) 8.6 ± 0.6; (323 K) 6.7 ± 0.5.
In the case of `CC1CCCCC1` [methylcyclohexane] + CCCC[n+]1ccn(C)c1.O=S(=O)([N-]S(=O)(=O)C(F)(F)F)C(F)(F)F, under “323 K”, the activity coefficient is 9.1 ± 0.6.
In the case of `CCOC(C)=O` [ethyl acetate] + C[n+]1ccn(CCCC#N)c1.O=S(=O)([N-]S(=O)(=O)C(F)(F)F)C(F)(F)F, the activity coefficient (303 K) worked out at 2.1 ± 0.2 and the activity coefficient (323 K) was 2.1 ± 0.2.
With `C=CCCCCCC` [oct-1-ene] + CCCCn1cc[n+](C)c1.F[B-](F)(F)F, the activity coefficient runs as follows: (298 K) 59.1 ± 4; (323 K) 48.3 ± 3.3.
Turning to `CCCCCCC` [heptane] + C[n+]1ccn(CCCC#N)c1.O=S(=O)([N-]S(=O)(=O)C(F)(F)F)C(F)(F)F, the activity coefficient was 134 ± 9.2 (303 K) and 126 ± 8.7 (323 K).
In the case of `C1CCCCC1` [cyclohexane] + CCCC[n+]1ccn(C)c1.O=S(=O)([N-]S(=O)(=O)C(F)(F)F)C(F)(F)F, for the setting “323 K”, the activity coefficient was 6.7 ± 0.5.
As for `CC1CCCCC1` [methylcyclohexane] + CCCCCCCCCCCCCCCC(=O)[O-].CCCCn1cc[n+](C)c1, the activity coefficient (333 K) turned out to be 1 ± 0.1.
Consider `CCO` [ethanol] + CCCCCCCCCCCCCCCCCC(=O)[O-].CCCCn1cc[n+](C)c1, for which the activity coefficient (323 K) was determined as 0.5 ± 0.1 and the activity coefficient (333 K) came out at 0.4 ± 0.1.
Take `C=CCCCC` [hex-1-ene] + CCCCCCCCCCCCCCCCCC(=O)[O-].CCCCn1cc[n+](C)c1: the activity coefficient is, setting by setting: (323 K) 1.4 ± 0.1; (333 K) 1.2 ± 0.1.
Take `Cc1ccccc1` [toluene] + CCCC[n+]1ccn(C)c1.O=S(=O)([N-]S(=O)(=O)C(F)(F)F)C(F)(F)F: for the setting “323 K”, the activity coefficient was 1.2 ± 0.1.
Same read-out and setting: to `O` [water] + CCCC[n+]1ccn(C)c1.O=S(=O)([N-]S(=O)(=O)C(F)(F)F)C(F)(F)F belongs 2.6 ± 0.2.
For `CCCCCC` [hexane] + C[n+]1ccn(CCCC#N)c1.O=S(=O)([N-]S(=O)(=O)C(F)(F)F)C(F)(F)F, the activity coefficient by setting is: (303 K) 126 ± 8.6; (323 K) 113 ± 7.7.
With `C1CCOC1` [tetrahydrofuran] + C[n+]1ccn(CCCC#N)c1.O=S(=O)([N-]S(=O)(=O)C(F)(F)F)C(F)(F)F, the activity coefficient (303 K) turned out to be 1.3 ± 0.1 and the activity coefficient (323 K) was determined as 1.2 ± 0.1.
`c1ccsc1` [thiophene] + CCCCCCCC[n+]1ccn(C)c1.F[B-](F)(F)F: the activity coefficient is 0.9 ± 0.1 (298 K) and 0.8 ± 0.1 (323 K).
On to `C=CCCCC` [hex-1-ene] + CCCCCCCC[n+]1ccn(C)c1.F[B-](F)(F)F, for which the activity coefficient runs as follows: (298 K) 4.9 ± 0.3; (323 K) 3.9 ± 0.3.
For `C1CCOC1` [tetrahydrofuran] + CCCCn1cc[n+](C)c1.F[B-](F)(F)F, the activity coefficient (298 K) was found to be 1.4 ± 0.1 and the activity coefficient (323 K) was found to be 1.4 ± 0.1.
Regarding `C=CCCCCCC` [oct-1-ene] + C[n+]1ccn(CCCC#N)c1.O=S(=O)([N-]S(=O)(=O)C(F)(F)F)C(F)(F)F, the activity coefficient was 119 ± 8.1 (303 K) and 106 ± 7.2 (323 K).
Take `C=CCCCC` [hex-1-ene] + CCCC[n+]1ccn(C)c1.O=S(=O)([N-]S(=O)(=O)C(F)(F)F)C(F)(F)F: the activity coefficient (323 K) was determined as 6 ± 0.4.
For the compound `C=CCCCC` [hex-1-ene] + C[n+]1ccn(CCCC#N)c1.N#CN=C=[N-], the activity coefficient reads like this: (303 K) 71.7 ± 4.9; (323 K) 60.4 ± 4.1.
For `CCCCCCCC` [octane] + CCCCn1cc[n+](C)c1.F[B-](F)(F)F, the activity coefficient (298 K) stood at 117 ± 8 and the activity coefficient (323 K) stood at 95.5 ± 6.5.
For `c1ccsc1` [thiophene] + CCCC[n+]1ccn(C)c1.O=S(=O)([N-]S(=O)(=O)C(F)(F)F)C(F)(F)F, where the note is “323 K”, the activity coefficient was 0.7 ± 0.1.
For the compound `C1CCOC1` [tetrahydrofuran] + CCCCCCCCCCCCCCCCCC(=O)[O-].CCCCn1cc[n+](C)c1, the activity coefficient runs as follows: (323 K) 0.7 ± 0.1; (333 K) 0.6 ± 0.1.
`C=CCCCC` [hex-1-ene] + CCCCn1cc[n+](C)c1.F[B-](F)(F)F: the activity coefficient came to 25.8 ± 1.8 (298 K) and 21.8 ± 1.5 (323 K).
On to `c1ccccc1` [benzene] + C[n+]1ccn(CCCC#N)c1.N#CN=C=[N-], for which the activity coefficient runs as follows: (303 K) 2.3 ± 0.2; (323 K) 2.2 ± 0.2.
On the same counts, the results for `CCO` [ethanol] + C[n+]1ccn(CCCC#N)c1.O=S(=O)([N-]S(=O)(=O)C(F)(F)F)C(F)(F)F are 1.7 ± 0.1 and 1.4 ± 0.1.
